US10538555B2, “Macrocyclic inhibitors of the PD-1/PD-L1 and CD80(B7-1)/PD-L1 protein/protein interactions” (BRISTOL-MYERS SQUIBB COMPANY, priority 2014, dated 2020)
*1 amine or outer side, *2 acyl side, *3 side chain or, on linkers, in order; H or OH if unused. Where a SMILES comes first, the peptide text is derived from it. Bridges are numbered along the chain shown (N, C = ends). [ ]: non-standard residue; d: D form. ξ: configuration not given here. X5 = O=C(O)CC[C@H](N[*:1])C(=O)C1C[C@H](O)C[C@H]1C(=O)[*:2]; Trp(1-CH2COOH) = N[C@@H](Cc1cn(CC(=O)O)c2ccccc12)C(=O)O; Phe(3,4,5-F3) = N[C@@H](Cc1cc(F)c(F)c(F)c1)C(=O)O; Trp(5-OH) = N[C@@H](Cc1c[nH]c2ccc(O)cc12)C(=O)O; Phe(3,4-F2) = N[C@@H](Cc1ccc(F)c(F)c1)C(=O)O; X8 = O=C([C@H](CC1CNc2ccccc21)N[*:1])[*:2]; ξαMeW = CC(N)(Cc1c[nH]c2ccccc12)C(=O)O; Bta = N[C@@H](Cc1csc2ccccc12)C(=O)O; ξPro(4R-OH) = O=C(O)C1C[C@@H](O)CN1; Hyp = O=C(O)[C@@H]1C[C@@H](O)CN1; NMeF = CN[C@@H](Cc1ccccc1)C(=O)O; X1 = O=C([C@H]1COCCN1[*:1])[*:2]; dHyp = O=C(O)[C@H]1C[C@H](O)CN1; Aad = N[C@@H](CCCC(=O)O)C(=O)O; NMeNle = CCCC[C@H](NC)C(=O)O; ξR = N=C(N)NCCCC(N)C(=O)O; NMeA = CN[C@@H](C)C(=O)O; Orn = NCCC[C@H](N)C(=O)O; Dab = NCC[C@H](N)C(=O)O; Dap = NC[C@H](N)C(=O)O; ξC = NC(CS)C(=O)O; Sar = CNCC(=O)O

Target: T1, Human PD-L1/PD-1 (Homo sapiens, UniProt Q9NZQ7)
T1 construct: TVMV protease cleavage site (C); made in house; host or cells: HEK293T cells
T1 sequence (Q9NZQ7 with tags, fused parts or gaps): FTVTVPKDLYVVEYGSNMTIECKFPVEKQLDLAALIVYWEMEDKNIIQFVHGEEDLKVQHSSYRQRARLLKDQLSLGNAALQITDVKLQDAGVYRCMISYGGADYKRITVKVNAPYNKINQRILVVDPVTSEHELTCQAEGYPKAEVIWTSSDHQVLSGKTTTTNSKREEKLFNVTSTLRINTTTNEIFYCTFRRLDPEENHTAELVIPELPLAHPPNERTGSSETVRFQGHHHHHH
Assay: HTRF Human PD-L1/PD-1 binding assay (PD-1-Ig/PD-L1-His)
Conditions: PD-L1-His 10 nM, PD-1-Ig 20 nM; class symbol; read-out: HTRF Human PD-L1/PD-1 Binding Assay IC50 Range
From the text: Methods for Testing the Ability of Macrocyclic Peptides to Compete for the Binding of PD-1 to PD-L1 Using Homogenous Time-Resolved Fluorescence (HTRF) Binding Assays
The ability of the macrocyclic peptides of the present disclosure to bind to PD-L1 was investigated using a PD-1/PD-L1 Homogenous Time-Resolved Fluorescence (HTRF) binding assay.
Homogenous Time-Resolved Fluorescence (HTRF) Assays of Binding of Soluble PD-1 to Soluble PD-L1. Soluble PD-1 and soluble PD-L1 refers to proteins with carboxyl-end truncations that remove the transmembrane-spanning regions and are fused to heterologous sequences, specifically the Fc portion of the human immunoglobuling G sequence (Ig) or the hexahistidine epitope tag (His). All binding studies were performed in an HTRF assay buffer consisting of dPBS supplemented with 0.1% (w/v) bovine serum albumin and 0.05% (v/v) Tween-20. For the PD-1-Ig/PD-L1-His binding assay, inhibitors were pre-incubated with PD-L1-His (10 nM final) for 15 m in 4 μl of assay buffer, followed by addition of PD-1-Ig (20 nM final) in 1 μl of assay buffer and further incubation for 15 m. PD-L1 fusion proteins from either human, cynomolgus macaques, or mouse were used. HTRF detection was achieved using europium crypate-labeled anti-Ig monoclonal antibody (1 nM final) and allophycocyanin (APC) labeled anti-His monoclonal antibody (20 nM final). Antibodies were diluted in HTRF detection buffer and 5 μl was dispensed on top of binding reaction. The reaction was allowed to equilibrate for 30 minutes and signal (665 nm/620 nm ratio) was obtained using an EnVision fluorometer. Additional binding assays were established between PD-1-Ig/PD-L2-His (20 and 5 nM, respectively), CD80-His/PD-L1-Ig (100 and 10 nM, respectively) and CD80-His/CTLA4-Ig (10 and 5 nM, respectively). Competition studies between biotinylated Compound No. 71 and human PD-L1-His were performed as follows. Macrocyclic peptide inhibitors were pre-incubated with PD-L1-His (10 nM final) for 60 minutes in 4 μl of assay buffer followed by addition of biotinylated Compound No. 71 (0.5 nM final) in 1 μl of assay buffer. Binding was allowed to equilibrate for 30 minutes followed by addition of europium crypated labeled Streptavidin (2.5 pM final) and APC-labeled anti-His (20 nM final) in 5 μl of HTRF buffer. The reaction was allowed to equilibrate for 30 m and signal (665 nm/620 nm ratio) was obtained using an EnVision fluorometer.
Recombinant Proteins. Carboxyl-truncated human PD-1 (amino acids 25-167) with a C-terminal human Ig epitope tag [hPD-1 (25-167)-3S-IG] and human PD-L1 (amino acids 18-239) with a C-terminal His epitope tag [hPD-L1([…])-tobacco vein mottling virus protease cleavage site (TVMV)-His] were expressed in HEK293T cells and purified sequentially by rProteinA affinity chromatography and size exclusion chromatography.

CCCC[C@H]1C(=O)N(C)CC(=O)N[C@@H](CC(=O)O)C(=O)N[C@@H](C(C)C)C(=O)N[C@@H](Cc2ccccc2)C(=O)N[C@@H](Cc2ccc(O)cc2)C(=O)N(C)CC(=O)NC(C)(Cc2c[nH]c3ccccc23)C(=O)N[C@@H](Cc2ccc(O)cc2)C(=O)N[C@@H](CC(C)C)C(=O)N[C@H](C(=O)NCC(N)=O)CSCC(=O)N[C@@H](Cc2ccccc2)C(=O)N(C)[C@@H](Cc2ccccc2)C(=O)N1C (stereo partly drawn) [Example 3639] ({CH2CO}-F[NMeF][NMeNle][Sar]DVFY[Sar][ξαMeW]YLCG-NH2; thioether N-13)
IC50: 1000 to 10000 nM

CCCC[C@H]1C(=O)N(C)[C@@H](CCCC)C(=O)N[C@@H](CCC(=O)O)C(=O)N[C@H](C(=O)NCC(N)=O)CSCC(=O)N[C@@H](Cc2ccc(O)cc2)C(=O)N(C)[C@@H](C)C(=O)N[C@@H](CC(=O)O)C(=O)N2CCC[C@H]2C(=O)N[C@@H](CO)C(=O)N[C@@H](CC(C)C)C(=O)N2C[C@H](O)C[C@H]2C(=O)N[C@@H](Cc2c[nH]c3ccccc23)C(=O)N[C@@H](CO)C(=O)N[C@@H](CC2CNc3ccccc32)C(=O)N1C (stereo partly drawn) [Example 5184] ({CH2CO}-Y[NMeA]DPSL[Hyp]WS[X8][NMeNle][NMeNle]ECG-NH2; thioether N-14)
IC50: 10 to 99.9 nM

CCCC[C@H]1C(=O)N(C)[C@@H](CCCC)C(=O)NC(CCCNC(=N)N)C(=O)N[C@H](C(=O)NCC(N)=O)CCCC(=O)N[C@@H](Cc2ccc(O)cc2)C(=O)N(C)[C@@H](C)C(=O)N[C@@H](CC(N)=O)C(=O)N2CCC[C@H]2C(=O)N[C@@H](CN)C(=O)N[C@@H](CC(C)C)C(=O)N2C[C@H](O)CC2C(=O)N[C@@H](Cc2c[nH]c3ccccc23)C(=O)N[C@@H](CO)C(=O)N[C@@H](Cc2c[nH]c3ccccc23)C(=O)N1C (stereo partly drawn) [Example 7067] (Y[NMeA]NP[Dap]L[ξPro(4R-OH)]WSW[NMeNle][NMeNle][ξR][Aad]G-NH2; lactam N-14)
IC50: 10 to 99.9 nM

CCCC[C@H]1C(=O)N(C)[C@@H](CCCC)C(=O)N[C@@H](CCC(=O)O)C(=O)N[C@H](C(=O)NCC(N)=O)CSCC(=O)N[C@@H](Cc2ccc(O)cc2)C(=O)N(C)[C@@H](C)C(=O)N[C@@H](CC(N)=O)C(=O)N2CCC[C@H]2C(=O)N[C@@H](Cc2cnc[nH]2)C(=O)N[C@@H](CCC(N)=O)C(=O)N2C[C@H](O)C[C@H]2C(=O)N[C@@H](Cc2c[nH]c3ccccc23)C(=O)N[C@@H](CCCCN)C(=O)N[C@@H](Cc2cn(CC(=O)O)c3ccccc23)C(=O)N1C [Example 6324] ({CH2CO}-Y[NMeA]NPHQ[Hyp]WK[Trp(1-CH2COOH)][NMeNle][NMeNle]ECG-NH2; thioether N-14)
IC50: 1 to 9.9 nM

CCCC[C@H]1C(=O)N(C)[C@@H](CCCC)C(=O)N[C@@H](CCC(=O)O)C(=O)N[C@H](C(=O)NCC(N)=O)CSCC(=O)N[C@@H](Cc2ccc(O)cc2)C(=O)N(C)[C@@H](C)C(=O)N[C@@H](CC(N)=O)C(=O)N2CCC[C@H]2C(=O)N[C@@H](CO)C(=O)N[C@@H](CCC(=O)O)C(=O)N2C[C@H](O)C[C@H]2C(=O)N[C@@H](Cc2c[nH]c3ccccc23)C(=O)N[C@@H](CCN)C(=O)N[C@@H](Cc2c[nH]c3ccccc23)C(=O)N1C [Example 5167] ({CH2CO}-Y[NMeA]NPSE[Hyp]W[Dab]W[NMeNle][NMeNle]ECG-NH2; thioether N-14)
IC50: 1 to 9.9 nM

CCCC[C@H]1C(=O)N(C)[C@@H](CCCC)C(=O)N[C@@H](CC(C)C)C(=O)N[C@H](C(=O)NCC(N)=O)CSCC(=O)N[C@@H](Cc2ccc(O)cc2)C(=O)N(C)[C@@H](C)C(=O)N[C@@H](CCN)C(=O)N2CCC[C@H]2C(=O)N[C@@H](Cc2c[nH]cn2)C(=O)N[C@@H](CCCCN)C(=O)N2C[C@H](O)C[C@H]2C(=O)N[C@@H](Cc2c[nH]c3ccccc23)C(=O)N[C@@H](CCCCN)C(=O)N[C@@H](Cc2c[nH]c3ccccc23)C(=O)N1C [Example 5201] ({CH2CO}-Y[NMeA][Dab]PHK[Hyp]WKW[NMeNle][NMeNle]LCG-NH2; thioether N-14)
IC50: 1 to 9.9 nM

CCCC[C@H]1C(=O)N2C[C@@H](O)C[C@@H]2C(=O)N[C@@H](CC(=O)O)C(=O)N[C@@H](C(C)C)C(=O)N(C)[C@@H](Cc2ccccc2)C(=O)N[C@@H](CCC(=O)O)C(=O)N2C[C@@H](O)C[C@@H]2C(=O)N[C@@H](Cc2c[nH]c3ccccc23)C(=O)N[C@@H](Cc2ccc(O)cc2)C(=O)N[C@@H](CCCN)C(=O)N[C@H](C(=O)NCC(N)=O)CSCC(=O)N[C@@H](Cc2ccc(F)c(F)c2)C(=O)N(C)[C@@H](Cc2ccccc2)C(=O)N1C [Example 9278] ({CH2CO}-[Phe(3,4-F2)][NMeF][NMeNle][dHyp]DV[NMeF]E[dHyp]WY[Orn]CG-NH2; thioether N-13)
IC50: 1 to 9.9 nM

CCCC[C@H]1C(=O)N(C)[C@@H](CCCC)C(=O)N[C@@H](CCN)C(=O)N[C@H](C(=O)NCC(N)=O)CSCC(=O)N[C@@H](Cc2ccc(O)cc2)C(=O)N(C)[C@@H](C)C(=O)N[C@@H](CC(N)=O)C(=O)N2CCC[C@H]2C(=O)N[C@@H](CN)C(=O)N[C@@H](CCC(N)=O)C(=O)N2C[C@H](O)C[C@H]2C(=O)N[C@@H](Cc2c[nH]c3ccccc23)C(=O)N[C@@H](CO)C(=O)N[C@@H](Cc2cn(CC(=O)O)c3ccccc23)C(=O)N1C [Example 6119] ({CH2CO}-Y[NMeA]NP[Dap]Q[Hyp]WS[Trp(1-CH2COOH)][NMeNle][NMeNle][Dab]CG-NH2; thioether N-14)
IC50: 1 to 9.9 nM

CCCC[C@H]1C(=O)N2C[C@@H](O)C[C@@H]2C(=O)N[C@@H](CC(=O)O)C(=O)N[C@@H](C(C)C)C(=O)N(C)[C@@H](Cc2ccccc2)C(=O)N[C@@H](CCC(=O)O)C(=O)N2CCOC[C@@H]2C(=O)N[C@@H](Cc2cn(CC(=O)O)c3ccccc23)C(=O)N[C@@H](Cc2ccc(O)cc2)C(=O)N[C@@H](CCCN)C(=O)N[C@H](C(=O)NCC(N)=O)CSCC(=O)N[C@@H](Cc2cc(F)c(F)c(F)c2)C(=O)N(C)[C@@H](Cc2ccccc2)C(=O)N1C [Example 9270] ({CH2CO}-[Phe(3,4,5-F3)][NMeF][NMeNle][dHyp]DV[NMeF]E[X1][Trp(1-CH2COOH)]Y[Orn]CG-NH2; thioether N-13)
IC50: 1 to 9.9 nM

CCCC[C@H]1C(=O)N(C)[C@@H](CCCC)C(=O)N[C@@H](CCC(=O)O)C(=O)N[C@H](C(=O)NCC(N)=O)CSCC(=O)N[C@@H](Cc2ccc(OC)cc2)C(=O)N(C)[C@@H](C)C(=O)N[C@@H](CC(=O)O)C(=O)N2CCC[C@H]2C(=O)N[C@@H](CN)C(=O)N[C@@H](CCC(=O)O)C(=O)N2C[C@H](O)C[C@H]2C(=O)N[C@@H](Cc2c[nH]c3ccccc23)C(=O)N[C@@H](CCN)C(=O)N[C@@H](Cc2c[nH]c3ccc(O)cc23)C(=O)N1C [Example 7152] ({CH2CO}-Y(Me)[NMeA]DP[Dap]E[Hyp]W[Dab][Trp(5-OH)][NMeNle][NMeNle]ECG-NH2; thioether N-14)
IC50: 10 to 99.9 nM

CCCC[C@H]1C(=O)N(C)[C@@H](CCCC)C(=O)N[C@@H](C)C(=O)NC(C(=O)NCC(N)=O)CSCC(=O)N[C@@H](Cc2ccc(O)cc2)C(=O)N(C)[C@@H](C)C(=O)N[C@@H](CC(N)=O)C(=O)N2CCC[C@H]2C(=O)N[C@@H](CC(N)=O)C(=O)N[C@@H](CC(C)C)C(=O)N2C[C@H](O)C[C@H]2C(=O)N[C@@H](Cc2c[nH]c3ccccc23)C(=O)N[C@@H](CO)C(=O)N[C@@H](Cc2csc3ccccc23)C(=O)N1C (stereo partly drawn) [Example 9135] ({CH2CO}-Y[NMeA]NPNL[Hyp]WS[Bta][NMeNle][NMeNle]A[ξC]G-NH2; thioether N-14)
IC50: 1 to 9.9 nM

CCCC[C@H]1C(=O)N(C)[C@@H](CCCC)C(=O)N[C@@H](CCCN)C(=O)N[C@H](C(=O)NCC(N)=O)CSCC(=O)N[C@@H](Cc2ccc(OC)cc2)C(=O)N(C)[C@@H](C)C(=O)N[C@@H](CC(N)=O)C(=O)N2CCC[C@H]2C(=O)N[C@@H](Cc2cnc[nH]2)C(=O)N[C@@H](CCC(=O)O)C(=O)C2C[C@H](O)C[C@H]2C(=O)N[C@@H](Cc2c[nH]c3ccccc23)C(=O)N[C@@H](CCN)C(=O)N[C@@H](Cc2c[nH]c3ccccc23)C(=O)N1C (stereo partly drawn) [Example 7087] ({CH2CO}-Y(Me)[NMeA]NPH[X5]W[Dab]W[NMeNle][NMeNle][Orn]CG-NH2; thioether N-13)
IC50: 1 to 9.9 nM
